Experimental data as given in patent publication US10987317B2, “Inhibition of glutaminase C” (Cornell University, priority 2009, dated 2021).

Key:
[1] = biological target: T1, E. coli-expressed mouse ortholog of human GAC (Mus musculus, UniProt D3Z7P3); assay: Recombinant glutaminase activity assay; assay type: biochemical
T1 construct: A plasmid encoding mouse GAC (residues 128-603) was cloned into the pET28a vector; His-tag (N, cleaved yes); made in house; host or cells: E. coli (pET28a)
T1 sequence (D3Z7P3 128-603 isoform D3Z7P3-2): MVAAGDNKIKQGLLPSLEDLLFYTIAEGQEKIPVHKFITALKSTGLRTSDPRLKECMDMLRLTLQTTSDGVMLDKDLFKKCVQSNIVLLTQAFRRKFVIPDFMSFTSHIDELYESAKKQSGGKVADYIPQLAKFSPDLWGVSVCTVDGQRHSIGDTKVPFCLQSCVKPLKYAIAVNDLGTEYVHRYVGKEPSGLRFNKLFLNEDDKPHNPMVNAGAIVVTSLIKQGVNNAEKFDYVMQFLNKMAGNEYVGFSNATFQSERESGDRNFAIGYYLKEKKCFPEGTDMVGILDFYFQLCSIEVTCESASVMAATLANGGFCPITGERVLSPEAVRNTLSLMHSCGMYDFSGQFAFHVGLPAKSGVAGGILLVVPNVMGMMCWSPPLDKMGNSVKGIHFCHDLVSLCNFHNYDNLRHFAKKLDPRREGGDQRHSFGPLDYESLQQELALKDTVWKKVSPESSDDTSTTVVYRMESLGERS
Procedure: (§1) 100%=620 moles of glutamine hydrolyzed per minute per mole of enzyme. Data represent the average of 3 experiments (±s.d.). […] Following precipitation of the beads and re-suspension, the samples are analyzed by Western blotting with anti-V5 antibody. […] Data represent the average of 3 experiments (±s.d.). […] Data represent the average of 3 experiments (±s.d.). […] Data represent the average of 3 experiments (±s.d.). FIG. 3E NIH 3T3 cells transiently expressing Dbl are assayed for focus formation in the presence of 10 μM 968 alone or together with […] dimethyl α-ketoglutarate. […] 100%=680 nM glutamine hydrolyzed per minute per 10^5 cells. Data are the average of 3 experiments (=s.d.). […] 100%=750 nM glutamine hydrolyzed per minute per 10^5 cells. Data represent the average of 3 experiments (±s.d.).
The activity of the E. coli-expressed recombinant mouse ortholog of human GAC are assayed in the presence of 0 (●), 10 (∇) or 20 (▪) μM 968 and inorganic phosphate in the form of dipotassium hydrogen phosphate. […] The data are plotted as GA activity as function of varying concentrations of glutamine or inorganic phosphate. The data are the average of 3 experiments and are plotted as mean±SEM.
Glutaminase activity assays were performed on recombinant enzyme as previously described (Kenny et al., “Bacterial Expression, Purification and Characterization of Rat Kidney-Type Mitochondrial Glutaminasc,” Protein Expr. Purif 31:140-148 (2003), which is hereby incorporated by reference in its entirety). A plasmid encoding mouse GAC (residues 128-603) was cloned into the pET28a vector and the protein was expressed with an N-terminal histidine (His)-tag. The tag was cleaved using thrombin and the protein was further purified by anion-exchange and gel-filtration chromatography. […] The reaction mixture was incubated at room temperature for 45 minutes and the absorbance at 340 nm was recorded for each sample against a water blank. The absorbance of the sample with just the cocktail mixture was subtracted from each reading to calculate the activity of the enzyme.

[2] = system: SKBR3 cells; assay: Breast cancer cell soft agar colony formation and growth; assay type: cell-based, human
Procedure: (§2) FIGS. 2A-G illustrate effects of 968 on the transforming activity of constitutively active Rho GTPases and human breast cancer cells. […] Cells are scored after 14 days and plotted as the percentage of the total number of colonies greater than […] in diameter. Data represent the average of 3 experiments (±s.d.). […] Data represent the average of 3 experiments (±s.d.). […] Data represent the average of 3 experiments (±s.d.). […] After 24 hours at 37° C. the migratory cells are fixed, stained with GIEMSA, and counted. Data represent the average of 3 experiments (±s.d.). […] Data represent the average of 3 experiments (±s.d.). […] Data represent the average of 3 experiments (±s.d.). […] Data represent the average of 3 experiments (±s.d.).
as §1

[3] = system: MDA-MB231 cells; assay: as above; assay type: cell-based, human; conditions: 10 μM
Procedure: as §2

[4] = system: NIH 3T3 cells stably expressing Cdc42(F28L) and transiently expressing GAC; assay: Focus formation by Cdc42(F28L) plus GAC; assay type: cell-based
Source text: FIGS. 4A-E illustrate the role of glutaminase C activity in cellular transformation. […] Data represent the average of 3 experiments (±s.d.). […] Data represent the average of 3 experiments (±s.d.). […] 100% represents the activity measured in untreated Dbl-transformed cells. The data represent the average of 2 experiments. […] 100% represents the activity measured in untreated SKBR3 cells. The data represent the average of 2 experiments. […] Data represent the average of 3 experiments (±s.d.).

Question: CN(C)c1ccc(C2Nc3ccc4ccccc4c3C3=C2C(=O)CC(C)(C)C3)cc1Br (centres unmarked) [Compound 968, 5-[3-bromo-4-(dimethylamino)phenyl]-2,2-dimethyl-2,3,5,6-tetrahydrobenzo[a]] was tested. Which “inhibition of enzymatic activity of purified GAC” value [1] did it give?
Answer: The value was “inhibits”.

Question: And the “mode of inhibition versus glutamine and inorganic phosphate” value ([1]; 0, 10 or 20 μM)?
Answer: Its value is “neither competitive versus substrate (glutamine) nor inorganic phosphate”.

Question: What about the “colony formation in soft agar” value ([2]; 10 μM) of the same compound?
Answer: Its value is “inhibits”.

Question: And the “growth to high density and in low serum” value ([2]; 10 μM)?
Answer: Its value is “inhibits”.

Question: And the “reversal of 968-inhibition by cell-permeable analog of α-ketoglutarate” value ([2]; growth in low serum, 10 μM 968 with 7 μM dimethyl α-ketoglutarate)?
Answer: Its value is “circumvented”.

Question: And the “colony formation in soft agar” value [3]?
Answer: The value was “inhibits”.

Question: What about the “growth to high density and in low serum” value [3] of the same compound?
Answer: The value was “inhibits”.

Question: What about the focus-forming activity [4] of the same compound?
Answer: Its focus-forming activity is “blocked”.
